Activity calls are given as the source filed them. The calls are words filed in the database; no cut-off is given here.
Experiments:
Pseudomonas aeruginosa [1] = assay: Antibacterial activity against Pseudomonas aeruginosa at 10 mg/ml after 24 hrs by disc diffusion method; format: functional, organism-based
Proteus vulgaris [2] = assay: Antibacterial activity against Proteus vulgaris at 10 mg/ml after 24 hrs by disc diffusion method; format: functional, organism-based
Salmonella paratyphi [3] = assay: Antibacterial activity against Salmonella paratyphi at 10 mg/ml after 24 hrs by disc diffusion method; format: functional, organism-based; details: Salmonella enterica subsp. enterica serovar Paratyphi A
Micrococcus luteus [4] = assay: Antibacterial activity against Micrococcus luteus at 10 mg/ml after 24 hrs by disc diffusion method; format: functional, organism-based
Proteus vulgaris [5] = assay: Antibacterial activity against Proteus vulgaris at 6.25 to 200 ug/ml after 24 hrs by microwell dilution method; format: functional, organism-based
Staphylococcus aureus [6] = assay: Antibacterial activity against Staphylococcus aureus at 6.25 to 200 ug/ml after 24 hrs by microwell dilution assay; format: functional, organism-based
Kluyveromyces marxianus = assay: Antifungal activity against Kluyveromyces marxianus at 10 mg/ml after 48 hrs by disc diffusion method; format: functional, organism-based
Escherichia coli [7] = assay: Antibacterial activity against Escherichia coli at 6.25 to 200 ug/ml after 24 hrs by microwell dilution method; format: functional, organism-based
Klebsiella aerogenes [8] = assay: Antibacterial activity against Enterobacter aerogenes at 10 mg/ml after 24 hrs by disc diffusion method; format: functional, organism-based
Micrococcus lylae [9] = assay: Antibacterial activity against Micrococcus lylae at 6.25 to 200 ug/ml after 24 hrs by microwell dilution method; format: functional, organism-based
[10] = system: Acinetobacter radioresistens; assay: Antibacterial activity against Acinetobacter radioresistens at 6.25 to 200 ug/ml after 24 hrs by microwell dilution method; format: functional, organism-based
Aspergillus = assay: Antifungal activity against Aspergillus at 10 mg/ml after 72 hrs by disc diffusion method; format: functional, organism-based
Micrococcus lylae [11] = assay: Antibacterial activity against Micrococcus lylae at 10 mg/ml after 24 hrs by disc diffusion method; format: functional, organism-based
Escherichia coli [12] = assay: Antibacterial activity against Escherichia coli at 10 mg/ml after 24 hrs by disc diffusion method; format: functional, organism-based
[13] = system: Acinetobacter radioresistens; assay: Antibacterial activity against Acinetobacter radioresistens at 10 mg/ml after 24 hrs by disc diffusion method; format: functional, organism-based
Candida albicans = assay: Antifungal activity against Candida albicans at 10 mg/ml after 48 hrs by disc diffusion method; format: functional, organism-based
Candida tropicalis = assay: Antifungal activity against Candida tropicalis at 10 mg/ml after 48 hrs by disc diffusion method; format: functional, organism-based
Staphylococcus cohnii [14] = assay: Antibacterial activity against Staphylococcus cohnii at 10 mg/ml after 24 hrs by disc diffusion method; format: functional
Nakaseomyces glabratus = assay: Antifungal activity against Candida glabrata at 10 mg/ml after 48 hrs by disc diffusion method; format: functional, organism-based
Hepacivirus hominis = assay: Inhibition of HCV N-terminal His-tagged NS5B RNA dependent RNA polymerase expressed in Escherichia coli DH5alpha using poly rA/U12 as primer at 200 uM after 60 mins by liquid scintillation counting
[15] = system: Schwanniomyces occidentalis; assay: Antifungal activity against Schwanniomyces occidentalis at 10 mg/ml after 48 hrs by disc diffusion method; format: functional, organism-based
Pseudomonas aeruginosa [16] = assay: Antibacterial activity against Pseudomonas aeruginosa at 6.25 to 200 ug/ml after 24 hrs by microwell dilution method; format: functional, organism-based
Pichia membranifaciens = assay: Antifungal activity against Pichia membranifaciens at 10 mg/ml after 48 hrs by disc diffusion method; format: functional, organism-based
Salmonella paratyphi [17] = assay: Antibacterial activity against Salmonella paratyphi at 6.25 to 200 ug/ml after 24 hrs by microwell dilution method; format: functional, organism-based; details: Salmonella enterica subsp. enterica serovar Paratyphi A
Photorhabdus luminescens [18] = assay: Antibacterial activity against Photorhabdus luminescens at 10 mg/ml after 24 hrs by disc diffusion method; format: functional, organism-based
Candida parapsilosis = assay: Antifungal activity against Candida parapsilosis at 10 mg/ml after 48 hrs by disc diffusion method; format: functional, organism-based
Staphylococcus aureus [19] = assay: Antibacterial activity against Staphylococcus aureus at 10 mg/ml after 24 hrs by disc diffusion method; format: functional
Photorhabdus luminescens [20] = assay: Antibacterial activity against Photorhabdus luminescens at 6.25 to 200 ug/ml after 24 hrs by microwell dilution method; format: functional, organism-based
Staphylococcus cohnii [21] = assay: Antibacterial activity against Staphylococcus cohnii at 6.25 to 200 ug/ml after 24 hrs by microwell dilution assay; format: functional, organism-based
Klebsiella aerogenes [22] = assay: Antibacterial activity against Enterobacter aerogenes at 6.25 to 200 ug/ml after 24 hrs by microwell dilution method; format: functional, organism-based
Micrococcus luteus [23] = assay: Antibacterial activity against Micrococcus luteus at 6.25 to 200 ug/ml after 24 hrs by microwell dilution method; format: functional, organism-based

## CC(C(=O)N/N=C1\SCC(=O)N1C)c1ccc(-c2ccccc2)c(F)c1 (stereo unspecified)
Pseudomonas aeruginosa [1]
  Activity: inactive
Proteus vulgaris [2]
  Activity: inactive
Salmonella paratyphi [3]
  Activity: inactive
Micrococcus luteus [4]
  Activity: inactive
Proteus vulgaris [5]
  Activity: inactive
Staphylococcus aureus [6]
  Activity: inactive
Kluyveromyces marxianus
  Activity: inactive
Escherichia coli [7]
  Activity: inactive
Klebsiella aerogenes [8]
  Activity: inactive
Micrococcus lylae [9]
  Activity: inactive
[10]
  Activity: inactive
Aspergillus
  Activity: inactive
Micrococcus lylae [11]
  Activity: inactive
Escherichia coli [12]
  Activity: inactive
[13]
  Activity: inactive
Candida albicans
  Activity: inactive
Candida tropicalis
  Activity: inactive
Staphylococcus cohnii [14]
  Activity: inactive
Nakaseomyces glabratus
  Activity: inactive
Hepacivirus hominis
  inhibition: 8%
[15]
  Activity: inactive
Pseudomonas aeruginosa [16]
  Activity: inactive
Pichia membranifaciens
  Activity: inactive
Salmonella paratyphi [17]
  Activity: inactive
Photorhabdus luminescens [18]
  Activity: inactive
Candida parapsilosis
  Activity: inactive
Staphylococcus aureus [19]
  Activity: inactive
Photorhabdus luminescens [20]
  Activity: inactive
Staphylococcus cohnii [21]
  Activity: inactive
Klebsiella aerogenes [22]
  Activity: inactive
Micrococcus luteus [23]
  Activity: inactive

## C=CCN1C(=O)CS/C1=N\NC(=O)C(C)c1ccc(-c2ccccc2)c(F)c1 (stereo unspecified)
Pseudomonas aeruginosa [1]
  Activity: inactive
Proteus vulgaris [2]
  Activity: inactive
Salmonella paratyphi [3]
  Activity: inactive
Micrococcus luteus [4]
  Activity: inactive
Proteus vulgaris [5]
  Activity: inactive
Staphylococcus aureus [6]
  Activity: inactive
Kluyveromyces marxianus
  Activity: inactive
Escherichia coli [7]
  Activity: inactive
Klebsiella aerogenes [8]
  Activity: inactive
Micrococcus lylae [9]
  Activity: inactive
[10]
  Activity: inactive
Aspergillus
  Activity: inactive
Micrococcus lylae [11]
  Activity: inactive
Escherichia coli [12]
  Activity: inactive
[13]
  Activity: inactive
Candida albicans
  Activity: inactive
Candida tropicalis
  Activity: inactive
Staphylococcus cohnii [14]
  Activity: inactive
Nakaseomyces glabratus
  Activity: inactive
Hepacivirus hominis
  inhibition: 8%
[15]
  Activity: inactive
Pseudomonas aeruginosa [16]
  Activity: inactive
Pichia membranifaciens
  Activity: inactive
Salmonella paratyphi [17]
  Activity: inactive
Photorhabdus luminescens [18]
  Activity: inactive
Candida parapsilosis
  Activity: inactive
Staphylococcus aureus [19]
  Activity: inactive
Photorhabdus luminescens [20]
  Activity: inactive
Staphylococcus cohnii [21]
  Activity: inactive
Klebsiella aerogenes [22]
  Activity: inactive
Micrococcus luteus [23]
  Activity: inactive

## CC(C(=O)N/N=C/c1ccccc1F)c1ccc(-c2ccccc2)c(F)c1 (stereo unspecified)
Pseudomonas aeruginosa [1]
  Activity: inactive
Proteus vulgaris [2]
  Activity: inactive
Salmonella paratyphi [3]
  Activity: inactive
Micrococcus luteus [4]
  Activity: inactive
Proteus vulgaris [5]
  Activity: inactive
Staphylococcus aureus [6]
  Activity: inactive
Kluyveromyces marxianus
  Activity: inactive
Escherichia coli [7]
  Activity: inactive
Klebsiella aerogenes [8]
  Activity: inactive
Micrococcus lylae [9]
  Activity: inactive
[10]
  Activity: inactive
Aspergillus
  Activity: inactive
Micrococcus lylae [11]
  Activity: inactive
Escherichia coli [12]
  Activity: inactive
[13]
  Activity: inactive
Candida albicans
  Activity: inactive
Candida tropicalis
  Activity: inactive
Staphylococcus cohnii [14]
  Activity: inactive
Nakaseomyces glabratus
  Activity: inactive
Hepacivirus hominis
  inhibition: 8%
[15]
  Activity: inactive
Pseudomonas aeruginosa [16]
  Activity: inactive
Pichia membranifaciens
  Activity: inactive
Salmonella paratyphi [17]
  Activity: inactive
Photorhabdus luminescens [18]
  Activity: inactive
Candida parapsilosis
  Activity: inactive
Staphylococcus aureus [19]
  Activity: inactive
Photorhabdus luminescens [20]
  Activity: inactive
Staphylococcus cohnii [21]
  Activity: inactive
Klebsiella aerogenes [22]
  Activity: inactive
Micrococcus luteus [23]
  Activity: inactive

## CC(C(=O)NN1C(=O)CSC1c1ccccc1F)c1ccc(-c2ccccc2)c(F)c1 (stereo unspecified)
Pseudomonas aeruginosa [1]
  Activity: inactive
Proteus vulgaris [2]
  Activity: inactive
Salmonella paratyphi [3]
  Activity: inactive
Micrococcus luteus [4]
  Activity: inactive
Proteus vulgaris [5]
  Activity: inactive
Staphylococcus aureus [6]
  Activity: inactive
Kluyveromyces marxianus
  Activity: inactive
Escherichia coli [7]
  Activity: inactive
Klebsiella aerogenes [8]
  Activity: inactive
Micrococcus lylae [9]
  Activity: inactive
[10]
  Activity: inactive
Aspergillus
  Activity: inactive
Micrococcus lylae [11]
  Activity: inactive
Escherichia coli [12]
  Activity: inactive
[13]
  Activity: inactive
Candida albicans
  Activity: inactive
Candida tropicalis
  Activity: inactive
Staphylococcus cohnii [14]
  Activity: inactive
Nakaseomyces glabratus
  Activity: inactive
Hepacivirus hominis
  inhibition: 8%
[15]
  Activity: inactive
Pseudomonas aeruginosa [16]
  Activity: inactive
Pichia membranifaciens
  Activity: inactive
Salmonella paratyphi [17]
  Activity: inactive
Photorhabdus luminescens [18]
  Activity: inactive
Candida parapsilosis
  Activity: inactive
Staphylococcus aureus [19]
  Activity: inactive
Photorhabdus luminescens [20]
  Activity: inactive
Staphylococcus cohnii [21]
  Activity: inactive
Klebsiella aerogenes [22]
  Activity: inactive
Micrococcus luteus [23]
  Activity: inactive

## CC(C(=O)NN1C(=O)CSC1c1c(F)cccc1F)c1ccc(-c2ccccc2)c(F)c1 (stereo unspecified)
Pseudomonas aeruginosa [1]
  Activity: inactive
Proteus vulgaris [2]
  Activity: inactive
Salmonella paratyphi [3]
  Activity: inactive
Micrococcus luteus [4]
  Activity: inactive
Proteus vulgaris [5]
  Activity: inactive
Staphylococcus aureus [6]
  Activity: inactive
Kluyveromyces marxianus
  Activity: inactive
Escherichia coli [7]
  Activity: inactive
Klebsiella aerogenes [8]
  Activity: inactive
Micrococcus lylae [9]
  Activity: inactive
[10]
  Activity: inactive
Aspergillus
  Activity: inactive
Micrococcus lylae [11]
  Activity: inactive
Escherichia coli [12]
  Activity: inactive
[13]
  Activity: inactive
Candida albicans
  Activity: inactive
Candida tropicalis
  Activity: inactive
Staphylococcus cohnii [14]
  Activity: inactive
Nakaseomyces glabratus
  Activity: inactive
Hepacivirus hominis
  inhibition: 8%
[15]
  Activity: inactive
Pseudomonas aeruginosa [16]
  Activity: inactive
Pichia membranifaciens
  Activity: inactive
Salmonella paratyphi [17]
  Activity: inactive
Photorhabdus luminescens [18]
  Activity: inactive
Candida parapsilosis
  Activity: inactive
Staphylococcus aureus [19]
  Activity: inactive
Photorhabdus luminescens [20]
  Activity: inactive
Staphylococcus cohnii [21]
  Activity: inactive
Klebsiella aerogenes [22]
  Activity: inactive
Micrococcus luteus [23]
  Activity: inactive

## CCCNC(=S)NNC(=O)C(C)c1ccc(-c2ccccc2)c(F)c1 (stereo unspecified)
Pseudomonas aeruginosa [1]
  Activity: inactive
Proteus vulgaris [2]
  Activity: inactive
Salmonella paratyphi [3]
  Activity: inactive
Micrococcus luteus [4]
  Activity: inactive
Proteus vulgaris [5]
  Activity: inactive
Staphylococcus aureus [6]
  Activity: inactive
Kluyveromyces marxianus
  Activity: inactive
Escherichia coli [7]
  Activity: inactive
Klebsiella aerogenes [8]
  Activity: inactive
Micrococcus lylae [9]
  Activity: inactive
[10]
  Activity: inactive
Aspergillus
  Activity: inactive
Micrococcus lylae [11]
  Activity: inactive
Escherichia coli [12]
  Activity: inactive
[13]
  Activity: inactive
Candida albicans
  Activity: inactive
Candida tropicalis
  Activity: inactive
Staphylococcus cohnii [14]
  Activity: inactive
Nakaseomyces glabratus
  Activity: inactive
Hepacivirus hominis
  inhibition: 8%
[15]
  Activity: inactive
Pseudomonas aeruginosa [16]
  Activity: inactive
Pichia membranifaciens
  Activity: inactive
Salmonella paratyphi [17]
  Activity: inactive
Photorhabdus luminescens [18]
  Activity: inactive
Candida parapsilosis
  Activity: inactive
Staphylococcus aureus [19]
  Activity: inactive
Photorhabdus luminescens [20]
  Activity: inactive
Staphylococcus cohnii [21]
  Activity: inactive
Klebsiella aerogenes [22]
  Activity: inactive
Micrococcus luteus [23]
  Activity: inactive

From ChEMBL document CHEMBL3046898, “Synthesis and characterization of flurbiprofen hydrazide derivatives as potential anti-HCV, anticancer and antimicrobial agents” (2013)
